The subject of this assay is lung cancer cell line NCI-H82. Put plainly: Cell proliferation assay, NCI-H82 (CELL-TITER GLO). In kind it is cell-based. The following applies: Homo sapiens, NCI-H82, 72 h, NCI-H82 cells, 72 h incubation, cell viability by CELL-TITER GLO, top concentration 1 μM; read-out: EC50, Inhibition of NCl-H82 Cell Proliferation. A digest of the protocol:
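NCI-H82 cells, 1,000 per well in RPMI1640, were treated after overnight plating with a 3-fold dilution series from 1 μM. Viability read by CellTiter-Glo luminescence after 72 h. EC50 derived from the curves.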

Some results are limits rather than exact numbers.

In the case of `C#Cc1nc(NC(=O)N[C@@H](COC(=O)CCC/C=C\C/C=C\C/C=C\C/C=C\CCCCC)c2ccc(-c3cccc4ncsc34)cc2)cs1` [Compound A117, (5Z,8Z,11Z,14Z)—(R)-2-(4-(Benzo[d]thiazol-7-yl)phenyl)-2-(3-(2-ethynylthiazol-4-yl)ureido)ethyl icosa-5,8,11,14-tetraenoate], the EC50 is not above 200 nM.
With `C#Cc1ncc(NC(=O)N[C@@H](CO)c2ccc(-c3cccc4ncsc34)cc2)s1` [Compound A118, (R)-1-(1-(4-(Benzo[d]thiazol-7-yl)phenyl)-2-hydroxyethyl)-3-(2-ethynylthiazol-5-yl)urea], the EC50 is 200 to 1000 nM.
In the case of `C#Cc1nc(NC(=O)N[C@@H](CO)c2ccc(-c3cccc4ncsc34)cc2)c(C)s1` [Compound A119, (R)-1-(1-(4-(Benzo[d]thiazol-7-yl)phenyl)-2-hydroxyethyl)-3-(2-ethynyl-5-methylthiazol-4-yl)urea], the EC50 was not above 200 nM.
For the compound `C#Cc1nnc(NC(=O)N[C@@H](CO)c2ccc(-c3cccc4ncsc34)cc2)s1` [Compound A120, (R)-1-(1-(4-(Benzo[d]thiazol-7-yl)phenyl)-2-hydroxyethyl)-3-(5-ethynyl-1,3,4-thiadiazol-2-yl)urea], the EC50 is not above 200 nM.
For `C#Cc1nc(NC(=O)N[C@@H](CO)c2ccc(-c3cccc4ncsc34)cc2)ns1` [Compound A122, (R)-1-(1-(4-(Benzo[d]thiazol-7-yl)phenyl)-2-hydroxyethyl)-3-(5-ethynyl-1,2,4-thiadiazol-3-yl)urea], the EC50 lay within 200 to 1000 nM.
With `C#Cc1ccnc(NC(=O)N[C@@H](CO)c2ccc(-c3cccc(N4CCCC4)n3)cc2)n1` [Compound A123, (R)-1-(4-Ethynylpyrimidin-2-yl)-3-(2-hydroxy-1-(4-(6-(pyrrolidin-1-yl)pyridin-2-yl)phenyl)ethyl)urea] the figure was not above 200 nM; with `C#Cc1cccc(NC(=O)N[C@@H](CO)c2ccc(-c3cccc(N4CCCC4)n3)cc2)n1` [Compound A124, (R)-1-(6-Ethynylpyridin-2-yl)-3-(2-hydroxy-1-(4-(6-(pyrrolidin-1-yl)pyridin-2-yl)phenyl)ethyl)urea], 200 to 1000 nM.
`C#Cc1nccc(NC(=O)N[C@@H](CO)c2ccc(-c3cccc(N4CCCC4)n3)cc2)n1` [Compound A125, (R)-1-(2-Ethynylpyrimidin-4-yl)-3-(2-hydroxy-1-(4-(6-(pyrrolidin-1-yl)pyridin-2-yl)phenyl)ethyl)urea]: the EC50 is not above 200 nM.
In the case of `C#Cc1nc(NC(=O)N[C@@H](CO)c2ccc(N3CC(F)(F)C3)cc2)cs1` [Compound A126, (R)-1-(1-(4-(3,3-Difluoroazetidin-1-yl)phenyl)-2-hydroxyethyl)-3-(2-ethynyl-thiazol-4-yl)urea], the EC50 is not above 200 nM.
As to `C#Cc1nc(NC(=O)N[C@@H](COC(N)=O)c2ccc(N3CC(F)(F)C3)cc2)cs1` [Compound A127, (R)-2-(4-(3,3-Difluoroazetidin-1-yl)phenyl)-2-(3-(2-ethynylthiazol-4-yl)ureido)-ethyl carbamate], the EC50 is not above 200 nM.
For `C#Cc1nc(NC(=O)N[C@@H](CO)c2ccc(N3CCCC3)cc2)cs1` [Compound A128, (R)-1-(2-Ethynylthiazol-4-yl)-3-(2-hydroxy-1-(4-(pyrrolidin-1-yl)phenyl)ethyl)-urea], the EC50 is not above 200 nM.
As for `C#Cc1nc(NC(=O)N[C@@H](CO)c2ccc(N3CCCC3=O)cc2)cs1` [Compound A129, (R)-1-(2-Ethynylthiazol-4-yl)-3-(2-hydroxy-1-(4-(2-oxopyrrolidin-1-yl)phenyl)-ethyl)urea], the EC50 is not above 200 nM.
For the compound `C#Cc1nc(NC(=O)N[C@@H](CO)c2ccc(N3CCC(F)(F)C3)cc2)cs1` [Compound A130, (R)-1-(1-(4-(3,3-Difluoropyrrolidin-1-yl)phenyl)-2-hydroxyethyl)-3-(2-ethynyl-thiazol-4-yl)urea], the EC50 is not above 200 nM.
In the case of `C#Cc1nc(NC(=O)N[C@@H](CO)c2ccc(N3CCCCC3=O)cc2)cs1` [Compound A131, (R)-1-(2-Ethynylthiazol-4-yl)-3-(2-hydroxy-1-(4-(2-oxopiperidin-1-yl)phenyl)-ethyl)urea], the EC50 was not above 200 nM.

Source of the values: patent US20240101546A1, “HETEROARYL-ACETYLENES, PHARMACEUTICAL COMPOSITIONS THEREOF, AND THEIR THERAPEUTIC APPLICATIONS” (Eubulus Biotherapeutics Inc., priority 2020, published 2024).
